Publication PMC3523717 (Angewandte Chemie (International ed. in English), 2012)

Molecular target: T1, Aurora kinase A (AKA) (Homo sapiens, UniProt O14965)
T1 sequence (O14965 1-403): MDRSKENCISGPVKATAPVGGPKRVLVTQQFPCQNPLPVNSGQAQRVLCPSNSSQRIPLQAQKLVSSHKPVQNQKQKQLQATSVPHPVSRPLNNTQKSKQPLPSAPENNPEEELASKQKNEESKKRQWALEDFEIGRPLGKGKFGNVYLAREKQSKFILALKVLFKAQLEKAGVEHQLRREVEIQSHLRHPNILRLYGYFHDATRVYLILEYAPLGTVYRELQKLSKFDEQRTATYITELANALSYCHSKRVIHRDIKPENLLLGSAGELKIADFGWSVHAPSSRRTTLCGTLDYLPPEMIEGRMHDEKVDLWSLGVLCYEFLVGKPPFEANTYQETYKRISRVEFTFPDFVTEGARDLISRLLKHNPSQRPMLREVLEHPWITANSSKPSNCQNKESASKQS
Test: kinase activity assay
Format: biochemical

- IC50: 0.0618 µM
Substance: MLN8054-TCO [compound 13]
